The test system of assay [1] is A375 (wild type Kras). Kind of assay: Proliferation Assay (Cell Viability Assay). The class given is cell-based. The note with it: Homo sapiens, A-375. How it is done: (§1) Cell lines: these Human tumor-derived cell lines were purchased from American Type Culture Collection. Human tumor-derived pancreatic cancer cell line MiaPaca-2 (expressing KRAS G12C mutant) and Panc-1 (expressing KRas G12D mutant), and Human non-small cell lung cancer (NSCLC) cell line A549 (expressing KRas G12S mutant), and Human melanoma cell line A375 (wild type Kras) were grown in complete DMEM-High Glucose medium. Human tumor-derived pancreatic cancer cell lines SU86.86 (expressing KRas G12D mutant), BxPC3 (expressing wild type K-Ras), and Human non-small cell lung cancer (NSCLC) cell lines NCI-H441 (expressing KRas G12S mutant), NCI-H1975 (expressing wild type KRas), NCI-H358 (expressing KRas G12C mutant), NCI-H1299 (expressing NRas Q61H mutant), and Human colon cancer cell line SW-620 (expressing KRas G12V mutant), Human triple negative breast cancer cell line HCC-1806 (expressing wild type KRas), and Human tumor-derived multiple myeloma cell line MM.1R (expressing wild type KRAS), were grown in RPMI 1640 medium. Human tumor-derived breast cancer cell line BT-549 (expressing wild type KRAS) was grown in RPMI 1640 medium in the presence of 11.8U insulin. Human tumor-derived pancreatic cancer cell line HPAF-II (expressing KRas G12D mutant), Human triple negative breast cancer cell line BT-20 (expressing wild type KRas), and Human colon cancer cell line LS123 (expressing KRas G12S mutant), were grown in EMEM medium. Human tumor-derived pancreatic cancer cell line CF-PAC1 (expressing KRas G12V mutant) was frown in IMDM medium, and Human colon cancer cell line HT29 (expressing wild type KRas) was grown in McCoy's 5A medium. The colon cancer cell line GP2d (expressing KRas G12D mutant) was purchased from MilliporeSigma and grown in DMEM-High Glucose medium. All cell lines were supplemented with penicillin (100 U/mL), streptomycin (100 μg/mL), and 10% heat-inactivated FBS at 37° C. in a humidified incubator with 5% CO2.
(§2) Method: Cells were plated at 2000 to 5000 cells/well density in 96-wells plate and cultured overnight. Small molecules that were tested were added to the cells in the final concentration of 10 μM in the presence of 0.3% DMSO and 10% FBS, and incubated for 2-4 days at 37° C. in a humidified incubator with 5% CO2. For IC50 value determination, serial dilutions of compounds were added to cells under the same conditions.
(§3) Assay: At the end of the incubation period, cell viability was determined using the CellTiter 96® Aqueous One Solution Cell Proliferation Assay according to manufacturer specifications (Promega, Madison, WI). The percentage of small molecules inhibition of cellular proliferation was calculated from raw data.

Assay [2] relates to GP2d (expressing KRas G12D mutant). Kind of assay: Proliferation Assay (Cell Viability Assay). The class given is cell-based. The note with it: Homo sapiens. How it is done:
as §1, §2, §3

The subject of assay [3] is BT-549 (expressing wild type KRAS). In words: Proliferation Assay (Cell Viability Assay). The assay is classed as cell-based. The note with it: Homo sapiens. How it is done: as §1, §2, §3
Assay [4] has as its system MM.1R (expressing wild type KRAS). In words: Proliferation Assay (Cell Viability Assay). The note with it: Homo sapiens, read-out: MM.1R IC50 (nM) Multiple Myloma. The assay is classed as cell-based. How it is done:
as §1, §2, §3

The subject of assay [5] is NCI-H358 (expressing KRas G12C mutant). Kind of assay: Proliferation Assay (Cell Viability Assay). The assay is classed as cell-based. The note with it: Homo sapiens. How it is done:
as §1, §2, §3

The subject of assay [6] is MAPK p38 phosphorylation. In words: MAPK p38 Activation Assay (western blot), Panc-1. The class given is cell-based, human. The note with it: at 10 μM, Panc-1 pancreatic cancer cell line; starred symbols = activation. How it is done: Protocol for MAPK p38 Activation Assay
This assay is referred to as the “MAPK p38 Activation Assay” throughout this application.
Cell lines: Human tumor-derived pancreatic cancer cell line Panc-1 (expressing KRas G12D mutant) was purchased from American Type Culture Collection and grown in complete DMEM-High Glucose medium, supplemented with penicillin (100 U/mL), streptomycin (100 μg/mL), and 10% heat-inactivated FBS at 37° C. in a humidified incubator with 5% CO2.
Method 1: Cells were plated at 350000 cells/well density in a 12-well plate, allowed 3 hours to adhere to the plate, then starved in the appropriate medium in the presence of 0.5% FBS overnight. The small molecules to be tested were added to the cells in the final concentration of 10 μM in the presence of 0.3% DMSO for 6 hours incubation at 37° C. For IC50 value determination, serial dilutions of compounds were added to cells under the same conditions. Next, cells were stimulated with 1.5 ng/ml EGF for 15 minutes then cells were lysed with lysis buffer containing 1% Triton X-100, EDTA, and Halt™ Protease & Phosphatase Inhibitor Cocktail (Thermo Scientific). Protein concentration was assessed by BCA protein assay (Thermo Scientific). Phosphorylation level of MAPK p38 was determined by western blot.
Method 2: Cells were plated at 350000 cells/well density in a 12-well plate in 10% FBS. The next day small molecules to be tested were added to the cells in the final concentration of 10 μM in the presence of 0.3% DMSO for 6 hours incubation at 37° C. For IC50 value determination, serial dilutions of compounds were added to cells under the same conditions. Next, cells were lysed with lysis buffer containing 1% Triton X-100, EDTA, and Halt™ Protease & Phosphatase Inhibitor Cocktail (Thermo Scientific). Protein concentration was assessed by BCA protein assay (Thermo Scientific). Phosphorylation level of MAPK p38 was determined by western blot.
Western blot protocol: Equal amounts of protein (15-50 μg) were separated by SDS-PAGE and transferred to nitrocellulose membranes (Invitrogen by Thermo Fisher Scientific). The membrane was stained with Ponceau S Stain (Boston BioProducts) to verify uniform protein loading. Membranes were blocked with 10% milk and phosphorylation levels of MAPK p38 were assessed by incubating overnight at 4° C. with the following antibody: Phospho-p38 MAPK (Thr180/Tyr182), from Cell Signaling Technology. Then the membranes were incubated with HRP-conjugated secondary antibody (Jackson Immunoresearch, West Grove, PA). Bands were incubated in Amersham ECL Prime Western Blotting Detection Reagent (GE Healthcare) and visualized using the ChemiDoc MP imaging system (Bio-Rad).
(In general: A western blot detects proteins with antibodies after separation by electrophoresis.)

Where [7] appears, read: Proliferation assay, A375, read-out: A375 IC50 (nM) Melanoma.
Where [8] appears, read: Proliferation assay, read-out: GP2d IC50 (nM) Colorectal.
[9] abbreviates: BT-549, Proliferation assay, BT549, read-out: BT549 IC50 (nM) TNBC.
Where [10] appears, read: Proliferation assay, NCI-H358, read-out: NCI-H358 IC50 (nM) NSCLC.

The structures appear in SMILES notation. Like-named read-outs stand apart in the source and are kept apart here.

On to `COc1cc(Nc2nc(-c3nccn3C)nn3cc(-c4ccn(C(C)C)n4)c(C)c23)ncn1` [Compound 6, 6-(1-Isopropyl-1H-pyrazol-3-yl)-N-(6-methoxypyrimidin-4-yl)-5-methyl-2-(1-methyl-1H-imidazol-2-yl)pyrrolo[2,1-f][1,2,4]triazin-4-amine], for which the IC50 in assay [1] (A375, melanoma, KRas WT, read-out: Proliferation assay IC50) is less than 150 nM; in assay [1] (setting [7]) it was greater than 50 nM; in assay [2] (setting [8]), greater than 50 nM; in assay [2] (colon, KRas G12D, read-out: Proliferation assay IC50), 150 to 500 nM; in assay [3] (setting [9]), greater than 50 nM; in assay [3] (BT-549, Breast (TNBC), KRas WT, read-out: Proliferation assay IC50), less than 150 nM. Further, the IC50 in assay [4] was 1 to 10 nM; in assay [5] (NCI-H358, NSCLC, KRas G12C, read-out: Proliferation assay IC50) it was less than 150 nM; in assay [5] (setting [10]), 10 to 50 nM. Also, in assay [6], the “% inh of MAPK p38 in Panc-1” value is given as “E* (E* = 1-30% activation)”.

Turning to `CO[C@H]1CC[C@@H](Nc2nc(-c3ccccn3)nn3cc(-c4ccn(C(C)C)n4)c(C)c23)C1` (racemic) [Compound 9, rac 6-(1-Isopropyl-1H-pyrazol-3-yl)-N-((1R,3S)-3-methoxycyclopentyl)-5-methyl-2-(pyridin-2-yl)pyrrolo[2,1-f][1,2,4]triazin-4-amine], in assay [6], the “% inh of MAPK p38 in Panc-1” value is given as “G* (G* = 75-99% activation)”.

In the case of `Cc1c(-c2ccn(C(C)C)n2)cn2nc(-c3nccn3C)nc(Nc3nccn3C)c12` [Compound 93, 6-(1-Isopropyl-1H-pyrazol-3-yl)-5-methyl-N,2-bis(1-methyl-1H-imidazol-2-yl)pyrrolo[2,1-f][1,2,4]triazin-4-amine], the “% inh of MAPK p38 in Panc-1” value in assay [6] is “H* (H* ≥ 100% activation)”.

Regarding `Cc1c(-c2ccn(C)n2)cn2nc(-c3nccn3C)nc(Nc3cc4n(n3)CCC4)c12` [Compound 100, N-(5,6-Dihydro-4H-pyrrolo[1,2-b]pyrazol-2-yl)-5-methyl-2-(1-methyl-1H-imidazol-2-yl)-6-(1-methyl-1H-pyrazol-3-yl)pyrrolo[2,1-f][1,2,4]triazin-4-amine], the IC50 in assay [1] (setting [7]) was greater than 50 nM; in assay [2] (setting [8]), 10 to 50 nM; in assay [3] (setting [9]) it was 10 to 50 nM; in assay [4], less than 1 nM; in assay [5] (setting [10]) it was greater than 50 nM.

Consider `Cc1c(-c2ccn(C)n2)cn2nc(-c3nccn3C)nc(Nc3cc(C4CC4)[nH]n3)c12` [Compound 104, N-(5-Cyclopropyl-1H-pyrazol-3-yl)-5-methyl-2-(1-methyl-1H-imidazol-2-yl)-6-(1-methyl-1H-pyrazol-3-yl)pyrrolo[2,1-f][1,2,4]triazin-4-amine], for which the IC50 in assay [1] (setting [7]) was greater than 50 nM; in assay [2] (setting [8]), 10 to 50 nM; in assay [3] (setting [9]), 10 to 50 nM; in assay [4] it was less than 1 nM; in assay [5] (setting [10]), greater than 50 nM.

In the case of `Cc1c(-c2ccn(C)n2)cn2nc(-c3nccn3C)nc(Nc3cc4n(n3)CCO4)c12` [Compound 124, N-(5-Methyl-2-(1-methyl-1H-imidazol-2-yl)-6-(1-methyl-1H-pyrazol-3-yl)pyrrolo[2,1-f][1,2,4]triazin-4-yl)-2,3-dihydropyrazolo[5,1-b]oxazol-6-amine], the IC50 in assay [1] (setting [7]) was 1 to 10 nM; in assay [2] (setting [8]), 1 to 10 nM; in assay [3] (setting [9]), 1 to 10 nM; in assay [4], less than 1 nM; in assay [5] (setting [10]) it was 1 to 10 nM.

Take `COc1ccnc(Nc2nc(-c3nccn3C)nn3cc(-c4ccn(C)n4)c(C)c23)c1` [Compound 102, N-(4-Methoxypyridin-2-yl)-5-methyl-2-(1-methyl-1H-imidazol-2-yl)-6-(1-methyl-1H-pyrazol-3-yl)pyrrolo[2,1-f][1,2,4]triazin-4-amine]: the IC50 in assay [1] (setting [7]) is 1 to 10 nM; in assay [2] (setting [8]) it was 10 to 50 nM; in assay [3] (setting [9]), 1 to 10 nM; in assay [4] it was less than 1 nM; in assay [5] (setting [10]), 1 to 10 nM.

With `Cc1c(-c2ccn(C(C)C)n2)cn2nc(-c3ccccn3)nc(O)c12` [Compound 8, 6-(1-Isopropyl-1H-pyrazol-3-yl)-5-methyl-2-(pyridin-2-yl)pyrrolo[2,1-f][1,2,4]triazin-4-ol], the “% inh of MAPK p38 in Panc-1” value in assay [6] is reported as “H* (H* ≥ 100% activation)”.

The values are drawn from patent publication US12459951B2, “Compounds that interact with RAS superfamily proteins for treatment of cancers, inflammatory diseases, rasopathies, and fibrotic disease” (SHY Therapeutics, LLC, priority 2022, dated 2025).
